Broadly, the Kp is the ratio of the level in a tissue or fluid to that in plasma or blood.

Series [1] is described as follows: Brain-to-plasma ratio determination in Sprague-Dawley rats. It is filed as in vivo. As to conditions: male Sprague-Dawley rats, four hours after a single oral dose (3, 4, 5, or 10 mg/kg); for Kp at 4 h: rat. The procedure: Example B: Brain-to-Plasma Ratio Determination in Sprague-Dawley Rats
The brain-to-plasma ratio (Kp) was determined in male Sprague-Dawley rats (7-9 weeks old) four hours after a single oral dose. Rats were acclimated and given free access to standard rodent chow and water throughout the entire study. Test articles were formulated as a solution at 0.3, 0.4, 0.5, or 1.0 mg/mL in a vehicle comprised of 10:15:75 (v:v:v) dimethylacetamide (DMA):Solutol HS15:water and delivered orally at a rate of 10 mL/kg to three rats to achieve final doses of 3, 4, 5, or 10 mg/kg, respectively. At 4 hours post-dose, blood samples were collected via jugular vein cannula into tubes containing K2EDTA as the anticoagulant and stored on ice. Blood samples were then centrifuged at 4° C. at 6000 rpm for 5 minutes, and the resulting plasma was placed into tubes and stored frozen at −80° C. until analysis. Whole brain samples were also collected at 4 hours post-dose. The weight of each brain was measured and recorded, and samples were immediately stored on dry ice. Brain samples were then transferred to storage at −80° C. until analysis.
Prior to analysis, brain samples were combined with water (4 mL/1 gram of brain) and homogenized. Prior to injection, plasma and brain homogenate samples and standards were prepared for analysis by precipitation with acetonitrile or 1:1 (v:v) methanol:acetonitrile. Samples were then thoroughly mixed, centrifuged at 4000 rpm for 15 minutes, and the resulting supernatant was transferred for analysis. Test article concentrations in plasma and brain homogenate were then determined by LC-MS/MS and quantified against calibration standards prepared to known concentrations in matched blank (analyte-free) biological matrix. The Kp was then determined by dividing the dilution-corrected brain concentration by the plasma concentration from each rat. A brain density of 1 gram/mL was assumed for all calculations.

In series [2] the test system is MCF7 adenocarcinoma cell line. Put plainly: Cell proliferation studies in MCF7 cells (ATP-Lite). To be noted: 10 days incubation, cell viability by ATP-Lite luminescence, read-out: PROLIFERATION_CTG_MCF7 IC50. It counts as cell-based. The essentials:
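MCF7 cells, seeded at 100 or 200 cells/well, were exposed for 10 days at 37 °C to a 9-point, 3-fold dilution series in quadruplicate, with media exchange and re-dosing on day 5. Viability was read by ATP-Lite luminescence, normalized to background and DMSO, and fitted for IC50.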

Another series deals with CDK6/Cyclin D1 (Homo sapiens (Human), UniProt Q00534). The experiment in a line: CDK6/CyclinD1 enzymatic activity assay (TR-FRET). It is filed as biochemical. To be noted: CDK6/Cyclin D1 1 nM, ATP 250 μM, read-out: CDK6_D1 IC50. The essentials:
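Insect-cell-expressed CDK6/Cyclin D1 (1 nM) phosphorylated ULight-4E-BP1 (100 nM) with 250 μM ATP in HEPES pH 7.4 buffer. After 20 min compound preincubation, reactions were started with 10 mM MgCl2 and run 60 min at 37 °C. EDTA-quenched samples were read by TR-FRET with Eu-anti-P-4E-BP1; IC50 from 9-dose 4-parameter fits.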
(In general: Time-resolved FRET reads energy transfer from a long-lived donor to a nearby acceptor.)

The next series has as its target CDK4/Cyclin D1 (Homo sapiens (Human), UniProt P11802). Put plainly: CDK4/CyclinD1 enzymatic activity assay (TR-FRET). It is filed as biochemical. As to conditions: CDK4/CyclinD1 1 nM, ATP 2 mM, read-out: CDK4_D1 IC50. The essentials:
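Insect-cell CDK4/Cyclin D1 (1 nM) with ULight-4E-BP1 (100 nM) and 2 mM ATP in HEPES pH 7.4 buffer, preincubated 20 min with compound (9-dose, 3-fold dilutions); 10 mM MgCl2 started the reaction, run 60 min at 37 °C. EDTA/Eu-anti-phospho-4E-BP1 TR-FRET detection; IC50 from 4-parameter Hill fit.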

The structures appear in SMILES notation. Like-named read-outs stand apart in the source and are kept apart here. A value given as a limit tells only on which side of the number the result lay.

Chain of CDK4/Cyclin D1 (P11802 whole entry): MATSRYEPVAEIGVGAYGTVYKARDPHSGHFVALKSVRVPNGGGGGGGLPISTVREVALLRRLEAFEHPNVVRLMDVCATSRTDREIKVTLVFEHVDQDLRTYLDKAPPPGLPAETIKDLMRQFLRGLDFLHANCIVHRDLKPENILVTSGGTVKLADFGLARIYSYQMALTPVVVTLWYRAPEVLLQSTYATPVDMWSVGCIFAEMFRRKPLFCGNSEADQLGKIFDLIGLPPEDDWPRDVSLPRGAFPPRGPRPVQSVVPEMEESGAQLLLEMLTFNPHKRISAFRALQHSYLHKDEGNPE
Chain of CDK4/Cyclin D1 (P24385 whole entry partner): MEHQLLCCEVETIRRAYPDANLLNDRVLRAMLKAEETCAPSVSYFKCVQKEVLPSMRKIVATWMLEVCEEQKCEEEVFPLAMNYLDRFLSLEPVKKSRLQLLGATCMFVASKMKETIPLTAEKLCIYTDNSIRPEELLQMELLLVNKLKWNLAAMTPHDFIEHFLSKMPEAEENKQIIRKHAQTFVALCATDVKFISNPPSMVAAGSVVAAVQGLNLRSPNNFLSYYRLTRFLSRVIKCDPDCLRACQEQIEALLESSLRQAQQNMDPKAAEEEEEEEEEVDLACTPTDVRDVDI
Chain of CDK6/Cyclin D1 (Q00534 whole entry): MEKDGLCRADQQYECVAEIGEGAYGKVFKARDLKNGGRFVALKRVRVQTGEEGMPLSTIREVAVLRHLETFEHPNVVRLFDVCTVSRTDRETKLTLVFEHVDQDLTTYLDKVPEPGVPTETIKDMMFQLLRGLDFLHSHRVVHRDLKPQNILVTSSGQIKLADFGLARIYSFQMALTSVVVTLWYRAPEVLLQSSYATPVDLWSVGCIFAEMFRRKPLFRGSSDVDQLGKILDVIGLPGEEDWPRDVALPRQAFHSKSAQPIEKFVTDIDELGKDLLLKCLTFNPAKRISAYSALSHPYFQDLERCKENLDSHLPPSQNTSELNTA
Chain of CDK6/Cyclin D1 (P24385 whole entry partner): as the sequence (P24385 whole entry partner) above

As to `CCN1CC2(C1)CN(c1ccc(Nc3ncc(F)c(-c4cc5c(s4)C4(CCCCC4)CN(C)C5=O)n3)nc1)C2` [Example 4, 2′-(2-((5-(6-Ethyl-2,6-diazaspiro[3.3]heptan-2-yl)pyridin-2-yl)amino)-5-fluoropyrimidin-4-yl)-5′-methyl-5′,6′-dihydro-4′H-spiro[cyclohexane-1,7′-thieno[3,2-c]pyridin]-4′-one], the concentration ratio (Kp) at 4 h in series [1] fell in the range of 1 to 3. For the same compound, the IC50 in series [2] (Homo sapiens, 240 h) is 0.02 to 0.2 µM; on CDK6/Cyclin D1, 0.02 to 0.2 µM; on CDK4/Cyclin D1, at most 0.02 µM.

Consider `Cc1c(-c2nc(Nc3ccc(C4CCN(C)CC4)cn3)ncc2F)sc2c1C(=O)N(C)C21CC1` [Example 6, 2′-(5-Fluoro-2-((5-(1-methylpiperidin-4-yl)pyridin-2-yl)amino)pyrimidin-4-yl)-3′,5′-dimethylspiro[cyclopropane-1,6′-thieno[2,3-c]pyrrol]-4′(5′H)-one], for which the partition ratio (Kp) at 4 h in series [1] lay in the range of 1 to 3. The IC50 was 0.02 to 0.2 µM in series [2] (Homo sapiens, 240 h); at most 0.02 µM at CDK6/Cyclin D1; at most 0.02 µM at CDK4/Cyclin D1.

`CCN1C(=O)c2c(sc(-c3nc(Nc4ccc(C5CCN(C)CC5)cn4)ncc3F)c2C)C12CC2` [Example 7, 5′-Ethyl-2′-(5-fluoro-2-((5-(1-methylpiperidin-4-yl)pyridin-2-yl)amino)pyrimidin-4-yl)-3′-methylspiro[cyclopropane-1,6′-thieno[2,3-c]pyrrol]-4′(5′H)-one]: the Kp at 4 h in series [1] is 1 to 3. Further, the IC50 is 0.02 to 0.2 µM in series [2] (Homo sapiens, 240 h); at most 0.02 µM on CDK6/Cyclin D1; at most 0.02 µM at CDK4/Cyclin D1.

As for `CCN1CC2(C1)CN(c1ccc(Nc3ncc(F)c(-c4sc5c(c4C)C(=O)N(C)C54CC4)n3)nc1)C2` [Example 12, 2′-(2-((5-(6-Ethyl-2,6-diazaspiro[3.3]heptan-2-yl)pyridin-2-yl)amino)-5-fluoropyrimidin-4-yl)-3′,5′-dimethylspiro[cyclopropane-1,6′-thieno[2,3-c]pyrrol]-4′(5′H)-one], the Kp at 4 h in series [1] is under 1. For the same compound, the IC50 was at most 0.02 µM in series [2] (Homo sapiens, 240 h); at most 0.02 µM at CDK6/Cyclin D1; at most 0.02 µM on CDK4/Cyclin D1.

On to `Cc1c(-c2nc(Nc3ccc(C4CCN(C(C)C)C4)cn3)ncc2F)sc2c1C(=O)N(C)C21CC1` (stereo not shown) [Example 16, 2′-(5-Fluoro-2-((5-(1-isopropylpyrrolidin-3-yl)pyridin-2-yl)amino)pyrimidin-4-yl)-3′,5′-dimethylspiro[cyclopropane-1,6′-thieno[2,3-c]pyrrol]-4′(5′H)-one], for which the Kp at 4 h in series [1] is under 1. Moreover, the IC50 in series [2] (Homo sapiens, 240 h) was 0.02 to 0.2 µM; on CDK6/Cyclin D1, at most 0.02 µM; on CDK4/Cyclin D1, at most 0.02 µM.

Take `CN1CCC(c2ccc(Nc3ncc(F)c(-c4cc5c(s4)C4(CCCC4)N(C)C5=O)n3)nc2)CC1` [Example 20, 2′-(5-Fluoro-2-((5-(1-methylpiperidin-4-yl)pyridin-2-yl)amino)pyrimidin-4-yl)-5′-methylspiro[cyclopentane-1,6′-thieno[2,3-c]pyrrol]-4′(5′H)-one]: the Kp at 4 h in series [1] is at least 3. Moreover, the IC50 was at most 0.02 µM in series [2] (Homo sapiens, 240 h); at most 0.02 µM at CDK6/Cyclin D1; at most 0.02 µM at CDK4/Cyclin D1.

Take `CCN1CC2(C1)CN(c1ccc(Nc3ncc(F)c(-c4cc5c(s4)C4(CCCC4)N(C)C5=O)n3)nc1)C2` [Example 24]: the Kp entry in series [1] is “++ (a “++” denotes 1.0 ≤ Kp < 3.0)”. The values for the IC50 (in series [2]; on CDK6/Cyclin D1; on CDK4/Cyclin D1) were 0.02 to 0.2 µM, at most 0.02 µM and at most 0.02 µM, respectively.

Regarding `Cc1c(-c2nc(Nc3ccc(C4CCN(C)CC4)cn3)ncc2F)sc2c1C(=O)N(C)C21CCCC1` [Example 25, 2′-(5-Fluoro-2-((5-(1-methylpiperidin-4-yl)pyridin-2-yl)amino)pyrimidin-4-yl)-3′,5′-dimethylspiro[cyclopentane-1,6′-thieno[2,3-c]pyrrol]-4′(5′H)-one], in series [1], the Kp at 4 h was 1 to 3. The IC50 is at most 0.02 µM in series [2] (Homo sapiens, 240 h); at most 0.02 µM at CDK6/Cyclin D1; at most 0.02 µM on CDK4/Cyclin D1.

On to `Cc1c(-c2nc(Nc3ccc(C4CCN(C)CC4)cn3)ncc2F)sc2c1C(=O)N(C)CC21CC1` [Example 28], for which the partition ratio (Kp) at 4 h in series [1] was at least 3. In addition, the IC50 in series [2] (Homo sapiens, 240 h) was 0.02 to 0.2 µM; on CDK6/Cyclin D1, at most 0.02 µM; at CDK4/Cyclin D1, at most 0.02 µM.

In the case of `CN1CCC(c2ccc(Nc3ncc(F)c(-c4cc5c(s4)C4(CC4)CN(C)C5=O)n3)nc2)CC1` [Example 29, 2′-(5-Fluoro-2-((5-(1-methyl-piperidin-4-yl)pyridin-2-yl)amino)pyrimidin-4-yl)-5′-methyl-5′,6′-dihydro-4′H-spiro[cyclo-propane-1,7′-thieno[3,2-c]pyridin]-4′-one], the Kp at 4 h in series [1] is 1 to 3. The IC50 in series [2] (Homo sapiens, 240 h) is 0.02 to 0.2 µM; on CDK6/Cyclin D1, 0.02 to 0.2 µM; on CDK4/Cyclin D1 it was at most 0.02 µM.

As for `Cc1c(-c2nc(Nc3ccc(N4CC5(CCN(C)C5)C4)cn3)ncc2F)sc2c1C(=O)N(C)CC21CC1` [Example 35], in series [1], the Kp at 4 h lay within 1 to 3. The IC50 was at most 0.02 µM in series [2] (Homo sapiens, 240 h); at most 0.02 µM on CDK6/Cyclin D1; at most 0.02 µM at CDK4/Cyclin D1.

For `CCN1C[C@H]2CN(c3ccc(Nc4ncc(F)c(-c5sc6c(c5C)C(=O)N(C)CC65CC5)n4)nc3)C[C@@H]2C1` [Example 39, 2′-(2-((5-((3aS,6aS)-5-Ethylhexahydropyrrolo[3,4-c]pyrrol-2(1H)-yl)pyridin-2-yl)amino)-5-fluoropyrimidin-4-yl)-3′,5′-dimethyl-5′,6′-dihydro-4′H-spiro[cyclopropane-1,7′-thieno[3,2-c]pyridin]-4′-one], the Kp at 4 h in series [1] fell in the range of 1 to 3. Besides, the IC50 in series [2] (Homo sapiens, 240 h) was 0.02 to 0.2 µM; on CDK6/Cyclin D1, at most 0.02 µM; on CDK4/Cyclin D1, at most 0.02 µM.

Turning to `CCN1CC2(C1)CN(c1ccc(Nc3ncc(C)c(-c4cc5c(s4)C4(CC4)CN(C)C5=O)n3)nc1)C2` [Example 41, 2-[2-[[5-(6-Ethyl-2,6-diazaspiro[3.3]heptan-2-yl)pyridin-2-yl]amino]-5-methylpyrimidin-4-yl]-5-methylspiro[6H-thieno[3,2-c]pyridine-7,1′-cyclopropane]-4-one], the concentration ratio (Kp) at 4 h in series [1] was under 1. For the same compound, the IC50 was at most 0.02 µM in series [2] (Homo sapiens, 240 h); at most 0.02 µM at CDK6/Cyclin D1; at most 0.02 µM on CDK4/Cyclin D1.

Take `CN1CCC(c2ccc(Nc3ncc(F)c(-c4cc5c(s4)C4(CCC4)CN(C)C5=O)n3)nc2)CC1` [Example 47, 2′-(5-Fluoro-2-((5-(1-methyl-piperidin-4-yl)pyridin-2-yl)amino)pyrimidin-4-yl)-5′-methyl-5′,6′-dihydro-4′H-spiro[cyclobutane-1,7′-thieno[3,2-c]pyridin]-4′-one]: the concentration ratio (Kp) at 4 h in series [1] was 1 to 3. Besides, the IC50 is 0.02 to 0.2 µM in series [2] (Homo sapiens, 240 h); 0.02 to 0.2 µM on CDK6/Cyclin D1; at most 0.02 µM on CDK4/Cyclin D1.

As for `Cc1c(-c2nc(Nc3ccc(C4CCN(C)CC4)cn3)ncc2F)sc2c1C(=O)N(C)CC21CCC1` [Example 48, 2′-(5-Fluoro-2-((5-(1-methyl-piperidin-4-yl)pyridin-2-yl)amino)pyrimidin-4-yl)-3′,5′-dimethyl-5′,6′-dihydro-4′H-spiro[cyclobutane-1,7′-thieno[3,2-c]pyridin]-4′-one], the Kp at 4 h in series [1] was at least 3. The IC50 in series [2] (Homo sapiens, 240 h) was 0.02 to 0.2 µM; on CDK6/Cyclin D1, at most 0.02 µM; on CDK4/Cyclin D1 it was at most 0.02 µM.

For `CN1CCN(c2ccc(Nc3ncc(F)c(-c4cc5c(s4)C4(CCC4)CN(C)C5=O)n3)nc2)CC1` [Example 50, 2′-(5-Fluoro-2-((5-(4-methyl-piperazin-1-yl)pyridin-2-yl)amino)pyrimidin-4-yl)-5′-methyl-5′,6′-dihydro-4′H-spiro[cyclobutane-1,7′-thieno[3,2-c]pyridin]-4′-one], in series [1], the partition ratio (Kp) at 4 h was at least 3. For the same compound, the IC50 in series [2] (Homo sapiens, 240 h) was 0.02 to 0.2 µM; at CDK6/Cyclin D1, at most 0.02 µM; on CDK4/Cyclin D1, at most 0.02 µM.

Source of the values: US20250163074A1, “CDK Inhibitors And Their Use As Pharmaceuticals” (Prelude Therapeutics Incorporated, priority 2020, published 2025).
